Measurements taken from patent US9101616B2, “Aryl substituted carboxamide derivatives as calcium or sodium channel blockers” (RaQualia Pharma Inc., priority 2009, dated 2015).
pIC50: −log10 of the molar value.

molecular target: T1, human T-type channel alpha-1H (CaV 3.2) (Homo sapiens, UniProt O95180); assay: Ca2+ Influx Assay (cell-based fluorescent, FDSS); conditions: HEK 293 cells expressing human CaV 3.2
T1 construct: expressed in transfected cells; host or cells: HEK 293
Description: Inhibition of T-type calcium channel activity was determined by cell-based flu-orescent Ca^2+ influx assay, in which potassium ionophore was added to decrease resting membrane potential and extra-cellular high-K^+ stimulation was used to modulate the membrane potential of the cell. The changes in fluorescent signal were monitored by the cell imaging technology by Hamamatsu Photonics's Functional Drug Screening System (FDSS).
HEK 293 cells expressing the human T-type channel alpha-1H (CaV 3.2) were maintained in DMEM supplemented with 10% heat-inactivated FBS, 100 units/ml Penicillin, 100 microg/ml Streptomycin, 150 microg/ml Zeocin, 300 microg/ml Geneticin. The cells were grown in a 5% CO2 humidified incubator at 37° C.
• 1. Cells were harvested and seeded in a poly-D-lysine coated black-sided clear bottom 384-well plate at density of 10,000 cells/well at 24 hours prior to assay. • 2. Incubate at 37° C. in 5% CO2. Day Two: • 1. Wash each well with assay buffer (see below) and leave 20 RI using plate washer, ELx-405 Select CW (BIO-TEK). • 2. Add 20 μL of assay buffer containing 6 μM Fluo-4-AM (Molecular Probes) and 0.005% Pluronic F-127 to each well. • 3. Incubate the plate at 37° C. for 1 hour. • 4. Wash each well assay buffer (see below) and leave 20 μl using plate washer, ELx-405 Select CW (BIO-TEK). • 5. Add 10 μl of compound solution into each well by FDSS6000 and leave the plate for 4.5 min, and then add 10 μl of potassium ionophore solution. • 6. Add 20 μl of high-K^+ depolarizing solution (see below) and monitor the change of fluorescent signal.
The IC50 values for compounds of the present invention were determined from 7-point dose-response studies. Curves were generated using the average of duplicate wells for each data point. Finally, the IC50 values are calculated with the best-fit dose curve determined by XLfit.

T1 sequence (O95180 whole entry): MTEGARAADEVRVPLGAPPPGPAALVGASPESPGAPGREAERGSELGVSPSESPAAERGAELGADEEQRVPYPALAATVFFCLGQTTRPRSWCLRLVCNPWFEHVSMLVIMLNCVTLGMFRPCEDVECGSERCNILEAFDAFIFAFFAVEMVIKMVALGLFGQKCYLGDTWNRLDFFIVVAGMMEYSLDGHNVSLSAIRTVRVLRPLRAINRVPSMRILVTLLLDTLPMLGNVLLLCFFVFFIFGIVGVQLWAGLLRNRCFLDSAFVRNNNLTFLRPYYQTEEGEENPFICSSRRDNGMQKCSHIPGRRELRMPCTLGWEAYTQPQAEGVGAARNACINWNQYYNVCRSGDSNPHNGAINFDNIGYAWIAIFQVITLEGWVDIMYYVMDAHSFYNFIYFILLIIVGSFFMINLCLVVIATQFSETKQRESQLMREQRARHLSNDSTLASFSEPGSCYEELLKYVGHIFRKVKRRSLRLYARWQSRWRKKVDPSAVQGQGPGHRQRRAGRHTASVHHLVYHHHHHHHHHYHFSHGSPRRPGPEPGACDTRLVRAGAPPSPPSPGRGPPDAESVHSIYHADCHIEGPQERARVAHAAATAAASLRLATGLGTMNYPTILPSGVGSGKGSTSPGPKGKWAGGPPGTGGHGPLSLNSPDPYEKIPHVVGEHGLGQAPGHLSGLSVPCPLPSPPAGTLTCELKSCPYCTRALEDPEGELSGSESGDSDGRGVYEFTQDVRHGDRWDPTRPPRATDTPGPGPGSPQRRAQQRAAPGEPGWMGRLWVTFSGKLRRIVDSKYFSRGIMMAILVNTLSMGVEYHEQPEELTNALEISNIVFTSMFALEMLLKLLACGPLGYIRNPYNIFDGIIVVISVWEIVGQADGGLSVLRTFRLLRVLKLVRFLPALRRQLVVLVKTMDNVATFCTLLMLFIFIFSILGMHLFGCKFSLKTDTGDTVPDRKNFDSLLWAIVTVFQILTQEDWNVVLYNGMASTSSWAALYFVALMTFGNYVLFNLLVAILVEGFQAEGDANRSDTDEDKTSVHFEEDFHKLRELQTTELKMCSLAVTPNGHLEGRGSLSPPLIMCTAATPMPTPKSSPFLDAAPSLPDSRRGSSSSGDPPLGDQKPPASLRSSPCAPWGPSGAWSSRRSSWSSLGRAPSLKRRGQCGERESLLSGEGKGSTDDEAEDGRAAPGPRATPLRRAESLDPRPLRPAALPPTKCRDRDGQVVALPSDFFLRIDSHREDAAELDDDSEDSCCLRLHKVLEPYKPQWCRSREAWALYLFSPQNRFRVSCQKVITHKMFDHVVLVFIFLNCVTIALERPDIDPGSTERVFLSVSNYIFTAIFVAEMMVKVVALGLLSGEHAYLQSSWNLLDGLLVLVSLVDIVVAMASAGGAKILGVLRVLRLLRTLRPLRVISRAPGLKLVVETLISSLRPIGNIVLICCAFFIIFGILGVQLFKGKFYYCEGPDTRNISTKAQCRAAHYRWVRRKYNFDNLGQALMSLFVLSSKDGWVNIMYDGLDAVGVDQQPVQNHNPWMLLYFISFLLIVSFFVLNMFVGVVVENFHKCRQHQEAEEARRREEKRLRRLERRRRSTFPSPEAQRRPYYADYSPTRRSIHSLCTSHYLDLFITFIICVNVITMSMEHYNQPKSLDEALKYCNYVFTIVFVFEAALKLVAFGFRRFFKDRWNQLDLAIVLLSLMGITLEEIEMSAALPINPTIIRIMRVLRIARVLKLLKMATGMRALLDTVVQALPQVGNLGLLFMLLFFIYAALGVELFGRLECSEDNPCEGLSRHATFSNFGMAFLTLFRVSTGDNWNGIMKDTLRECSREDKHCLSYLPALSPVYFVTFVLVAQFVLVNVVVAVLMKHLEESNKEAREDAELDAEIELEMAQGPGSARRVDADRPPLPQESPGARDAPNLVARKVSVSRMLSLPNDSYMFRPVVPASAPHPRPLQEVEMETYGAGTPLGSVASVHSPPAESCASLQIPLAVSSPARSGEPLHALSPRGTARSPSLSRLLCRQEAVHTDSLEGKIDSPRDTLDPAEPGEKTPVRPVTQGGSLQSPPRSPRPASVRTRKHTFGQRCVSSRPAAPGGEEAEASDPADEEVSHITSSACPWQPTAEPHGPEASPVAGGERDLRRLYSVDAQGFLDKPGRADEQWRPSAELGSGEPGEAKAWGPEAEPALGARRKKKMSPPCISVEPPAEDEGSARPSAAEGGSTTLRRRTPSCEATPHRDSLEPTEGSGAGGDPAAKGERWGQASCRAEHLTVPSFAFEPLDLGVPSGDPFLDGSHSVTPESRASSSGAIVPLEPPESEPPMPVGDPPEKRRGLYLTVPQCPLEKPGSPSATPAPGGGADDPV

**Q.** `C[C@@H](NC(=O)C1CC1c1nc2ccccc2n1C)c1ccc(OCC(F)(F)F)nc1` (stereo in doubt) [Example 245, trans-2-(1-methyl-1H-benzo[d]imidazol-2-yl)-N-((R)-1-(6-(2,2,2-trifluoroethoxy)pyridin-3-yl)ethyl)cyclopropanecarboxamide] was tested. Which pIC50 did it give?
**A.** ≥ 6.52

**Q.** With `C[C@@H](NC(=O)C1CC1c1cc2cc(F)ccc2[nH]1)c1ccc(OCC(F)(F)F)nc1` (stereo partly drawn) [Example 210, trans-2-(5-fluoro-1H-indol-2-yl)-N-((R)-1-(6-(2,2,2-trifluoroethoxy)pridin-3-yl)ethyl)cyclopropanecarboxamide] as the compound, how does the pIC50 read?
**A.** ≥ 6.52

**Q.** With `C[C@@H](NC(=O)[C@H]1C[C@@H]1c1cc2ccccc2[nH]1)c1cnc(OCC(F)(F)F)cn1` (relative stereo) [Example 225, (1S*,2S*)-2-(1H-indol-2-yl)-N-((R)-1-(5-(2,2,2-trifluoroethoxy)pyrazin-2-yl)ethyl)cyclopropanecarboxamide] as the compound, how does the pIC50 read?
**A.** ≥ 6.52

**Q.** How did the pIC50 turn out when `C[C@@H](NC(=O)C1CC1c1cc2cc(F)ccc2[nH]1)c1ccc(OCC(F)(F)F)cn1` (stereo in doubt) [Example 125, trans-2-(5-fluoro-1H-indol-2-yl)-N-((R)-1-(5-(2,2,2-trifluoroethoxy)pyridin-2-yl)ethyl)cyclopropanecarboxamide] was run?
**A.** ≥ 6.52

**Q.** `C[C@@H](NC(=O)C1CC1c1cccc2cc[nH]c12)c1ccc(OCC(F)(F)F)nc1` (stereo in doubt) [Example 212, trans-2-(1H-indol-7-yl)-N-((R)-1-(6-(2,2,2-trifluoroethoxy)pyridin-3-yl)ethyl)cyclopropanecarboxamide] was tested. Which pIC50 did it give?
**A.** ≥ 6.52

**Q.** `C[C@@H](NC(=O)[C@H]1C[C@@H]1c1cc(F)cc(F)c1)c1ccc(OCC(F)(F)F)cn1` (relative stereo) [Example 253, (1S*,2S*)-2-(3,5-difluorophenyl)-N-((R)-1-(5-(2,2,2-trifluoroethoxy)pyridin-2-yl)ethyl)cyclopropanecarboxamide] was tested. Which pIC50 did it give?
**A.** ≥ 6.52

**Q.** How did the pIC50 turn out when `C[C@@H](NC(=O)[C@H]1C[C@@H]1c1ccc(F)cc1Cl)c1ccc(OCC2CC2)cn1` (relative stereo) [Example 261, (1S*,2S*)-2-(2-chloro-4-fluorophenyl)-N-((R)-1-(5-(cyclopropylmethoxy)pyridin-2-yl)ethyl)cyclopropanecarboxamide] was run?
**A.** ≥ 6.52

**Q.** With `Cc1cccc([C@H]2C[C@@H]2C(=O)N[C@H](C)c2ccc(OCC(F)(F)F)cn2)c1` (relative stereo) [Example 251, (1S*,2S*)-2-m-tolyl-N-((R)-1-(5-(2,2,2-trifluoroethoxy)pyridin-2-yl)ethyl)cyclopropanecarboxamide] as the compound, how does the pIC50 read?
**A.** ≥ 6.52

**Q.** How did the pIC50 turn out when `C[C@@H](NC(=O)[C@H]1C[C@@H]1COc1ccccc1)c1ccc(OCC(F)(F)F)nc1` (relative stereo) [Example 320, (1S*,2S*)-2-(phenoxymethyl)-N-((R)-1-(6-(2,2,2-trifluoroethoxy)pyridin-3-yl)ethyl)cyclopropanecarboxamide] was run?
**A.** ≥ 6.52

**Q.** `C[C@@H](NC(=O)C1CC1c1ccc2ccn(C)c2c1)c1ccc(OCC(F)(F)F)nc1` (stereo in doubt) [Example 208, trans-2-(1-methyl-1H-indol-6-yl)-N-((R)-1-(6-(2,2,2-trifluoroethoxy)pyridin-3-yl)ethyl)cyclopropanecarboxamide] was tested. Which pIC50 did it give?
**A.** ≥ 6.52

**Q.** How did the pIC50 turn out when `C[C@@H](NC(=O)[C@H]1C[C@@H]1c1nc2ccccc2[nH]1)c1ccc(OCC(F)(F)F)nc1` (relative stereo) [Example 287, (1S*,2S*)-2-(1H-benzo[d]imidazol-2-yl)-N-((R)-1-(6-(2,2,2-trifluoroethoxy)pyridin-3-yl)ethyl)cyclopropanecarboxamide] was run?
**A.** ≥ 6.52

**Q.** `C[C@@H](NC(=O)[C@@H]1C[C@H]1c1cccc2[nH]ccc12)c1cnc(OCC(F)(F)F)cn1` (relative stereo) [Example 279, (1R*,2R*)-2-(1H-Indol-4-yl)-N-((R)-1-(5-(2,2,2-trifluoroethoxy)pyrazin-2-yl)ethyl)cyclopropanecarboxamide] was tested. Which pIC50 did it give?
**A.** ≥ 6.52

**Q.** How did the pIC50 turn out when `C[C@@H](NC(=O)C1CC1c1cc2ccccc2[nH]1)c1ccc(OCC(F)(F)F)cn1` (stereo in doubt) [Example 124, trans-2-(1H-indol-2-yl)-N-((R)-1-(5-(2,2,2-trifluoroethoxy)pyridin-2-yl)ethyl)cyclopropanecarboxamide] was run?
**A.** ≥ 6.52

**Q.** How did the pIC50 turn out when `C[C@@H](NC(=O)[C@H]1C[C@@H]1c1ccc2cnn(C)c2c1)c1ccc(OCC(F)(F)F)cn1` (relative stereo) [Example 227, (1S*,2S*)-2-(1-methyl-1H-indazol-6-yl)-N-((R)-1-(5-(2,2,2-trifluoroethoxy)pyridin-2-yl)ethyl)cyclopropanecarboxamide] was run?
**A.** ≥ 6.52

**Q.** How did the pIC50 turn out when `C[C@@H](NC(=O)[C@@H]1C[C@H]1c1ccc2ccccc2n1)c1cnc(OCC(F)(F)F)cn1` (relative stereo) [Example 222, (1R*,2R*)-2-(quinolin-2-yl)-N-((R)-1-(5-(2,2,2-trifluoroethoxy)pyrazin-2-yl)ethyl)cyclopropanecarboxamide] was run?
**A.** ≥ 6.52

**Q.** `C[C@@H](NC(=O)[C@H]1C[C@@H]1COc1ccccc1)c1cnc(OCC(F)(F)F)cn1` (relative stereo) [Example 318, (1S*,2S*)-2-(phenoxymethyl)-N-((R)-1-(5-(2,2,2-trifluoroethoxy)pyrazin-2-yl)ethyl)cyclopropanecarboxamide] was tested. Which pIC50 did it give?
**A.** ≥ 6.52

**Q.** With `COc1ccc([C@H]2C[C@@H]2C(=O)N[C@H](C)c2ccc(OCC3CC3)cn2)c(F)c1` (relative stereo) [Example 263, (1S*,2S*)-N-((R)-1-(5-(cyclopropylmethoxy)pyridin-2-yl)ethyl)-2-(2-fluoro-4-methoxy-phenyl)cyclopropanecarboxamide] as the compound, how does the pIC50 read?
**A.** ≥ 6.52

**Q.** With `C[C@@H](NC(=O)[C@H]1C[C@@H]1c1cc(F)ccc1F)c1ccc(OCC(F)(F)F)cn1` (relative stereo) [Example 327, (1S*,2S*)-2-(2,5-difluorophenyl)-N-((R)-1-(5-(2,2,2-trifluoroethoxy)pyridin-2-yl)ethyl)cyclopropanecarboxamide] as the compound, how does the pIC50 read?
**A.** ≥ 6.52

**Q.** With `C[C@@H](NC(=O)[C@H]1C[C@@H]1c1c[nH]c2ccccc12)c1ccc(OCC(F)(F)F)cn1` (relative stereo) [Example 133, (1S*,2S*)-2-(1H-indol-3-yl)-N-((R)-1-(5-(2,2,2-trifluoroethoxy)pyridin-2-yl)ethyl)cyclopropanecarboxamide] as the compound, how does the pIC50 read?
**A.** ≥ 6.52

**Q.** `C[C@@H](NC(=O)C1CC1c1ccc2cc[nH]c2c1)c1ccc(OCC(F)(F)F)nc1` (stereo in doubt) [Example 147, trans-2-(1H-indol-6-yl)-N-((R)-1-(6-(2,2,2-trifluoroethoxy)pyridin-3-yl)ethyl)cyclopropanecarboxamide] was tested. Which pIC50 did it give?
**A.** ≥ 6.52

**Q.** With `C[C@@H](NC(=O)C1CC1c1c[nH]c2cc(F)ccc12)c1ccc(OCC(F)(F)F)cn1` (stereo in doubt) [Example 168, trans-2-(6-fluoro-1H-indol-3-yl)-N-((R)-1-(5-(2,2,2-trifluoroethoxy)pyridin-2-yl)ethyl)cyclopropanecarboxamide] as the compound, how does the pIC50 read?
**A.** ≥ 6.52

**Q.** How did the pIC50 turn out when `C[C@@H](NC(=O)C1CC1c1ccc2ccn(CC3(C)COC3)c2c1)c1cnc(OCC(F)(F)F)cn1` (stereo in doubt) [Example 190, trans-2-(1-((3-methyloxetan-3-yl)methyl)-1H-indol-6-yl)-N-((R)-1-(5-(2,2,2-trifluoro-ethoxy)pyrazin-2-yl)ethyl)cyclopropanecarboxamide] was run?
**A.** ≥ 6.52
